Results published in patent publication US11357779B2 (G1 Therapeutics, Inc., priority 2018, dated 2022).
Where two headings read alike, the source gives them in different places.

Experiment: Plasma concentration versus time of Compound I and metabolite Compound III in patients dosed QD or BID with Form B of Compound II plus fulvestrant
Type: in vivo, human
Conditions: human, plasma, oral, read-out: Compound I Concentration
Source text: Patients were enrolled into 1 of 2 parallel, independently operating, dose-escalation dosing cohorts with Form B of Compound II administered continuously either once daily (QD) or twice daily (BID) with food with fixed-dose fulvestrant (intramuscularly every 14 days for the first three injections and then every 28 days). Pre- or perimenopausal patients also received goserelin for the duration of study treatment. A […] agonist was started at least 28 days before the first dose of Form B, and those patients who were taking another LHRH agonist were switched to goserelin on Day 1. Patients were split into […] cohorts providing once a day (QD) dosing of 200 mg, 300 mg, 400 mg, 500 mg, or 650 mg of Form B, or twice a day (BID) dosing of 100 mg, 150 mg, or 200 mg of Form B. The second dose in BID cohorts was not administered in the evening until at least 12 hours after the initial morning dose of Form B. The dosing cohorts for Form B of Compound II are provided in Table 1.
Blood samples were collected at the following time points relative to the morning dose of Form B at Day 1 and at Day 29: pre-dose (0 hour) and 1, 2, 3, 4, 6, 8, 10, 12 (prior to the evening dose in the BID cohorts), and 24 (prior to the next day's morning dose) hours after dosing. A 5-minute time window was allowed for samples collected between the predose and 3 hours after Form B dosing. A 15-minute window was allowed for samples collected between 4 to 12 hours after Form B dosing. A 1-hour window was allowed for the sample collected 24 hours after Form B dosing. Blood samples for Compound I PK trough levels were collected pre-dose at Day 8, Day 15, and Day 22 prior to the morning administration of Compound I. Plasma concentrations of Compound I and its metabolite, Compound III, were measured using validated methods.
Analysis of plasma concentration versus time data for calculation of standard pharmacokinetic (PK) parameters following oral administration was conducted using Phoenix WinNonlin version 6.3 using actual blood sampling times.

Question: Which concentration at 1 h (300 mg, 300 mg QD of Form B, Day 29, 1.0 h, Median) does the source give for `CC(C)N1CCN(c2ccc(Nc3ncc4cc5n(c4n3)C3(CCCCC3)CNC5=O)nc2)CC1` [Compound I, 2′-((5-(4-isopropylpiperazin-1-yl)pyridin-2-yl)amino)-7′,8′-dihydro-6′H-spiro[cyclohexane-1,9′-pyrazino[1′,2′:1,5]pyrrolo[2,3-d]pyrimidin]-6′-one] here?
Answer: 15.4 ng/mL

Question: What about the concentration at 2 h (300 mg, 300 mg QD of Form B, Day 29, 2.0 h, Mean) of the same compound?
Answer: 22.6 ng/mL

Question: What about the concentration at 2 h (300 mg, 300 mg QD of Form B, Day 29, 2.0 h, Median) of the same compound?
Answer: 19.5 ng/mL

Question: What about the concentration at 3 h (300 mg, 300 mg QD of Form B, Day 29, 3.0 h, Mean) of the same compound?
Answer: 31 ng/mL

Question: What about the concentration at 3 h (300 mg, 300 mg QD of Form B, Day 29, 3.0 h, Median) of the same compound?
Answer: 26.3 ng/mL

Question: What about the concentration at 4 h (300 mg, 300 mg QD of Form B, Day 29, 4.0 h, Mean) of the same compound?
Answer: 44.9 ng/mL

Question: And the concentration at 4 h (300 mg, 300 mg QD of Form B, Day 29, 4.0 h, Median)?
Answer: 34.2 ng/mL

Question: What about the concentration at 6 h (300 mg, 300 mg QD of Form B, Day 29, 6.0 h, Mean) of the same compound?
Answer: 35.9 ng/mL

Question: And the concentration at 6 h (300 mg, 300 mg QD of Form B, Day 29, 6.0 h, Median)?
Answer: 39.2 ng/mL

Question: What about the concentration at 8 h (300 mg, 300 mg QD of Form B, Day 29, 8.0 h, Mean) of the same compound?
Answer: 31.5 ng/mL

Question: And the concentration at 8 h (300 mg, 300 mg QD of Form B, Day 29, 8.0 h, Median)?
Answer: 33.3 ng/mL

Question: And the concentration at 10 h (300 mg, 300 mg QD of Form B, Day 29, 10.0 h, Mean)?
Answer: 25.6 ng/mL

Question: And the concentration at 10 h (300 mg, 300 mg QD of Form B, Day 29, 10.0 h, Median)?
Answer: 18.9 ng/mL

Question: And the concentration at 12 h (300 mg, 300 mg QD of Form B, Day 29, 12.0 h, Mean)?
Answer: 26.4 ng/mL

Question: What about the concentration at 12 h (300 mg, 300 mg QD of Form B, Day 29, 12.0 h, Median) of the same compound?
Answer: 20.5 ng/mL

Question: What about the concentration at 24 h (300 mg, 300 mg QD of Form B, Day 29, […], Mean) of the same compound?
Answer: 14.4 ng/mL

Question: And the concentration at 24 h (300 mg, 300 mg QD of Form B, Day 29, […], Median)?
Answer: 10.9 ng/mL

Question: What about the concentration at 0 h (400 mg, 400 mg QD of Form B, Day 1, 0.0 h, Mean) of the same compound?
Answer: 0 ng/mL

Question: What about the concentration at 0 h (400 mg, 400 mg QD of Form B, Day 1, 0.0 h, Median) of the same compound?
Answer: 0 ng/mL

Question: What about the concentration at 1 h (400 mg, 400 mg QD of Form B, Day 1, 1.0 h, Mean) of the same compound?
Answer: 5.32 ng/mL

Question: What about the concentration at 1 h (400 mg, 400 mg QD of Form B, Day 1, 1.0 h, Median) of the same compound?
Answer: 2.26 ng/mL

Question: And the concentration at 2 h (400 mg, 400 mg QD of Form B, Day 1, 2.0 h, Mean)?
Answer: 5.67 ng/mL

Question: What about the concentration at 2 h (400 mg, 400 mg QD of Form B, Day 1, 2.0 h, Median) of the same compound?
Answer: 4.83 ng/mL

Question: What about the concentration at 3 h (400 mg, 400 mg QD of Form B, Day 1, 3.0 h, Mean) of the same compound?
Answer: 9.21 ng/mL

Question: What about the concentration at 3 h (400 mg, 400 mg QD of Form B, Day 1, 3.0 h, Median) of the same compound?
Answer: 9.38 ng/mL

Question: What about the concentration at 4 h (400 mg, 400 mg QD of Form B, Day 1, 4.0 h, Mean) of the same compound?
Answer: 14 ng/mL

Question: And the concentration at 4 h (400 mg, 400 mg QD of Form B, Day 1, 4.0 h, Median)?
Answer: 13.1 ng/mL

Question: And the concentration at 6 h (400 mg, 400 mg QD of Form B, Day 1, 6.0 h, Mean)?
Answer: 20.1 ng/mL

Question: And the concentration at 6 h (400 mg, 400 mg QD of Form B, Day 1, 6.0 h, Median)?
Answer: 21.6 ng/mL

Question: What about the concentration at 8 h (400 mg, 400 mg QD of Form B, Day 1, 8.0 h, Mean) of the same compound?
Answer: 15.5 ng/mL

Question: And the concentration at 8 h (400 mg, 400 mg QD of Form B, Day 1, 8.0 h, Median)?
Answer: 16 ng/mL

Question: What about the concentration at 10 h (400 mg, 400 mg QD of Form B, Day 1, 10.0 h, Mean) of the same compound?
Answer: 10.6 ng/mL

Question: And the concentration at 10 h (400 mg, 400 mg QD of Form B, Day 1, 10.0 h, Median)?
Answer: 9.56 ng/mL

Question: And the concentration at 12 h (400 mg, 400 mg QD of Form B, Day 1, 12.0 h, Mean)?
Answer: 7.69 ng/mL

Question: What about the concentration at 12 h (400 mg, 400 mg QD of Form B, Day 1, 12.0 h, Median) of the same compound?
Answer: 8.13 ng/mL

Question: What about the concentration at 24 h (400 mg, 400 mg QD of Form B, Day 1, […], Mean) of the same compound?
Answer: 3.27 ng/mL

Question: What about the concentration at 24 h (400 mg, 400 mg QD of Form B, Day 1, […], Median) of the same compound?
Answer: 3.31 ng/mL

Question: What about the concentration at 0 h (400 mg, 400 mg QD of Form B, Day 29, 0.0 h, Mean) of the same compound?
Answer: 6.8 ng/mL

Question: What about the concentration at 0 h (400 mg, 400 mg QD of Form B, Day 29, 0.0 h, Median) of the same compound?
Answer: 7.52 ng/mL

Question: And the concentration at 1 h (400 mg, 400 mg QD of Form B, Day 29, 1.0 h, Mean)?
Answer: 8.07 ng/mL

Question: And the concentration at 1 h (400 mg, 400 mg QD of Form B, Day 29, 1.0 h, Median)?
Answer: 9.88 ng/mL

Question: And the concentration at 2 h (400 mg, 400 mg QD of Form B, Day 29, 2.0 h, Mean)?
Answer: 11.1 ng/mL

Question: What about the concentration at 2 h (400 mg, 400 mg QD of Form B, Day 29, 2.0 h, Median) of the same compound?
Answer: 13.4 ng/mL

Question: And the concentration at 3 h (400 mg, 400 mg QD of Form B, Day 29, 3.0 h, Mean)?
Answer: 14.2 ng/mL

Question: And the concentration at 3 h (400 mg, 400 mg QD of Form B, Day 29, 3.0 h, Median)?
Answer: 17.2 ng/mL

Question: And the concentration at 4 h (400 mg, 400 mg QD of Form B, Day 29, 4.0 h, Mean)?
Answer: 17 ng/mL

Question: And the concentration at 4 h (400 mg, 400 mg QD of Form B, Day 29, 4.0 h, Median)?
Answer: 21.2 ng/mL

Question: What about the concentration at 6 h (400 mg, 400 mg QD of Form B, Day 29, 6.0 h, Mean) of the same compound?
Answer: 18.9 ng/mL

Question: And the concentration at 6 h (400 mg, 400 mg QD of Form B, Day 29, 6.0 h, Median)?
Answer: 23.2 ng/mL

Question: And the concentration at 8 h (400 mg, 400 mg QD of Form B, Day 29, 8.0 h, Mean)?
Answer: 17 ng/mL

Question: And the concentration at 8 h (400 mg, 400 mg QD of Form B, Day 29, 8.0 h, Median)?
Answer: 20.5 ng/mL

Question: And the concentration at 10 h (400 mg, 400 mg QD of Form B, Day 29, 10.0 h, Mean)?
Answer: 14.2 ng/mL

Question: And the concentration at 10 h (400 mg, 400 mg QD of Form B, Day 29, 10.0 h, Median)?
Answer: 17.1 ng/mL

Question: And the concentration at 12 h (400 mg, 400 mg QD of Form B, Day 29, 12.0 h, Mean)?
Answer: 11.8 ng/mL

Question: And the concentration at 12 h (400 mg, 400 mg QD of Form B, Day 29, 12.0 h, Median)?
Answer: 13.5 ng/mL

Question: What about the concentration at 24 h (400 mg, 400 mg QD of Form B, Day 29, […], Mean) of the same compound?
Answer: 6.26 ng/mL

Question: And the concentration at 24 h (400 mg, 400 mg QD of Form B, Day 29, […], Median)?
Answer: 7.04 ng/mL

Question: What about the concentration at 0 h (500 mg, 500 mg QD of Form B, Day 1, 0.0 h, Mean) of the same compound?
Answer: 0 ng/mL
